Laboratory results as given in US9023795B2, “Angiogenesis-inhibiting peptide and application thereof” (Shanghai First People's Hospital, priority 2010, dated 2015).

Legend:
[1] = tested on: pathological angiogenesis in the mouse cornea; experiment: Corneal stroma micropocket model, VEGF-induced pathological angiogenesis in the mouse cornea; assay type: in vivo, C57BL/6 mice; conditions: 5 days after operation, compared with VEGF group
Protocol: Model of the corneal stroma micropocket was used and the methods were as follows:
Male C57BL/6 mice (aged 4-5 weeks) were intraperitoneally injected with 2% pentobarbital (about 0.1 ml/PCS) for anesthesia. 4% hydrochloric oxybuprocaine ophthalmic solution was locally administrated. Under the stereo microscope, OT syringe needle and 2 ml syringe needle was used to perform a blunt dissection between the layers of corneal stroma at 0.8-1 mm from corneoscleral limbus. A pouch of about 0.6×0.8 mm was formed. Slow-release tablets (mixture of 1:1 (v/v) of 12% poly Hydroxyethyl methacrylate (polyHEMA): sucralfate) were planted respectively into the micropocket, including negative control group (blank tablet), positive control group (VEGF group: 320 ng/μl, 160 ng/tablet), and treatment group (VEGF+ZY1 small peptides of 1 μg/tablet low concentration, 5 μg/tablet moderate concentration, or 10 μg/tablet high concentration). 5 days after operation, the length of the longest new vessel (VL is the length of the longest new blood vessel grown from limbus to the cornea), and the clock hours of corneal neovascularization (CN represents the accumulative clock hours of corneal neovascularization) were observed. Neovascularization area were calculated as followed: Area (mm^2)=0.5*3.14*VL (mm)*CN*0.4 (mm). […] was used for statistical analysis.

[2] = tested on: pathological angiogenesis in the mouse retina; experiment: Retinal angiogenesis in hypoxia-induced mice; assay type: in vivo, C57BL/6 mice; conditions: intravitreal, eyeballs removed 5 days later, P<0.01
Protocol: Model of retinal angiogenesis in hypoxia-induced mice was used and the methods were as follows:
Seven days after birth, C57BL/6 mice were placed together with their breast feeding mother into an environment having a 75%±2% oxygen concentration. The mice were taken out 5 days later, and were injected intravitreally with […] ZY1 small peptides of low concentration (500 ng/μl), moderate concentration (1 μg/μl), high concentration (2 μg/μl) or control sample PBS. Mice were placed in an environment having normal air for further feeding, thereby forming the mice model of retinopathy induced by hypoxia. The eyeballs were removed 5 days later, fixed in 4% paraformaldehyde, embedded in paraffin, cut into sections, and stained with HE. The amount of the nucleus of the vascular endothelial cells in retina was counted under the optical microscope (Magnification was 200 fold). SPSS11.0.1 was used for statistical analysis.

[3] = tested on: Human Umbilical Vein Endothelial Cells (HUVECs); experiment: Proliferation of primary HUVECs, MTS method; assay type: cell-based; conditions: VEGF + ZY1, even at low concentration (1 μg/μl), 24 hours incubation
Protocol: The MTS method was used as follows:
Human Umbilical Vein Endothelial Cells (HUVECs) (purchased from ScienCell Co.) were inoculated onto a 96-well plate with an inoculation concentration of 4×10^4/ml. After cells had adhered to the wall, serum-free culture medium of ECM were added and the cells were cultivated at 37° C. for 24 hours. Then the serum-free culture medium ECM was added into each well in negative control group. VEGF (10 ng/ml) (purchased from Sigma Co.) in positive control group, VEGF (10 ng/well) ZY1 small peptide having different concentrations (1 μg/μl, 10 μg/μl, 25 μg/μl, 50 μg/μl) in treatment group were added as well. After 24 hours incubation, 20 μl MTS solution (purchased from Promega Corporation) was added in each well. After incubation at 37° C. for 4 hours, the absorbance at 490 nm for each well was measured by using Enzyme-linked Immunoassay Analysis (Bio-Rad Co.). The proliferation activity of cells was determined according to OD490. Finally, SPSS11.0.1 was used for statistical analysis.
Derived Polypeptides were prepared as follows, and the inhibition effect on proliferation of Human Umbilical Vein Endothelial Cells HUVECs was determined according to the methods in Example 6.

[4] = tested on: Human Umbilical Vein Endothelial Cells (HUVECs); experiment: Migration of primary HUVECs, Wound Healing method; assay type: cell-based; conditions: VEGF (10 ng/ml) + ZY1 1, 10, 25, 50 μg/μl, 6 hours
Protocol: The Wound Healing method was used as follows:
Primary Human Umbilical Vein Endothelial Cells (HUVECs) (purchased from ScienCell Co.) were inoculated onto a 12-well plate with an inoculation concentration of 1×10^5/ml. After cells had adhered to the wall and grown to 80%-90% of confluence, serum-free culture medium of ECM were added before cultivation at 37° C. for 24 hours. A “+” scratch was carved with the tip of a 200 μl pipettor in each well and serum-free culture medium ECM were added in negative control group. VEGF (10 ng/ml) (purchased from Sigma Co.) in positive control group, and VEGF (10 ng/ml)+ZY1 small peptide having different concentrations (1 μg/μl, 10 μg/μl, 25 μg/μl, 50 μg/μl) in treatment group were added as well. The cultivation was continued. Photos were taken for the scratches of the cells in the 12-well plate at 0 hour and 6 hour, respectively. The average width of the scratches was calculated. The migration activity was determined according to the scratch width. Finally, SPSS11.0.1 was used for statistical analysis.

[5] = tested on: Human Umbilical Vein Endothelial Cells (HUVECs); experiment: Chemotaxis of primary HUVECs, Transwell Chamber method; assay type: cell-based; conditions: ZY1 10, 25, 50 μg/μl in upper chamber, VEGF (50 ng/ml) in lower chamber, 24 hours
Protocol: The Transwell Chamber method was used as follows:
HUVECs (purchased from ScienCell Co.) were inoculated onto the upper chamber of Transwell chambers with an inoculation concentration of 6×10^5/ml. Serum-free culture medium of ECM or ZY1 small peptide having different concentrations (10 μg/μl, 25 μg/μl, 50 μg/μl) were added into individual upper chambers. VEGF (50 ng/ml) (purchased from Sigma Co.) was added/not added into the lower chamber as a chemotactic factor. After incubation at 37° C. for 24 hours, the cells on upper surface of Transwell Chamber membrane were wiped and the membrane was washed with PBS. Then the membrane was fixed in 4% paraformaldehyde solution and the lower surface of membrane was stained with hematoxylin, cut and then sections were prepared. Five fields on the chamber membrane under the optical microscope (Magnification was 400 fold) were randomly taken for photograph and the number of cells nucleus was counted. The chemotaxis was determined according to the number of cells nucleus on the lower surface of chamber membrane. Finally, SPSS11.0.1 was used for statistical analysis.

[6] = tested on: Human Umbilical Vein Endothelial Cells (HUVECs); experiment: Lumen formation of primary HUVECs, Matrigel method; assay type: cell-based; conditions: ZY1 at different concentrations (1, 10, 25, 50 μg/μl), VEGF 50 ng/ml, 6 hours of treatment
Protocol: The Matrigel method was used as follows:
A 50 μl/well Matrigel (purchased from BD Co.) was added into a 96-well plate before incubation at 37° C. for 30 min. After solidified, the primary HUVECs were inoculated onto the surface of the Matrigel with an inoculation concentration of 8×10^6/ml. Serum-free culture medium of ECM in negative control group, VEGF (50 ng/ml) (purchased from Sigma Co.) in positive control group, and ZY1 small peptide having different concentrations (1 μg/μl, 10 μg/μl, 25 μg/μl, 50 μg/μl) in treatment group were added into the wells. The incubation was continued at 37° C. Photos were taken for the 3 randomized fields of cells in the plate under the microscope (Magnification was 200 fold.) after 6 hours of treatment and the number of formed lumina was counted. Finally, SPSS11.0.1 was used for statistical analysis.

“CVSLLRCTGCC GDENLHCVPV (CVSLLRCTGCCGDENLHCVPV; angiogenesis-inhibiting peptide ZY1)” was tested, and the “inhibition of corneal angiogenesis (neovascularization area)” value ([1]; high concentration (10 μg/tablet) + VEGF 160 ng/tablet) was “significantly inhibited”, the “inhibition of corneal angiogenesis (neovascularization area)” value ([1]; moderate concentration (5 μg/tablet) + VEGF 160 ng/tablet) was “significantly inhibited” and the “inhibition of pathological angiogenesis in mouse retina (amount of nucleus of vascular endothelial cells)” value ([2]; high concentration (2 μg/μl)) was “significantly inhibited”. The “inhibition of pathological angiogenesis in mouse retina (amount of nucleus of vascular endothelial cells)” value ([2]; moderate concentration (1 μg/μl)) was “significantly inhibited”, the “inhibition of proliferation of HUVECs (OD490)” value [3] was “significantly inhibited” and the “inhibition of migration of primary HUVECs (scratch width)” value [4] was “significantly inhibited”. The “inhibition of chemotaxis of HUVECs (number of cell nuclei on lower surface of chamber membrane)” value [5] was “significant inhibition effect” and the “inhibition of lumen formation of primary HUVECs (number of formed lumina)” value [6] was “significant inhibition effect”.
